The subject of the data set is CCRIS mutagenicity, Ames/micronucleus/aberration tests. As to the kind of experiment: CCRIS mutagenicity studies.
Setting [1] is: Test System: AMES SALMONELLA TYPHIMURIUM, Strain/Indicator: TA98, Metabolic Activation: RAT, LIVER, S-9, AROCLOR 1254, Method: STANDARD PLATE.
The mark [2] stands for this setting: Test System: AMES SALMONELLA TYPHIMURIUM, Strain/Indicator: TA100, Metabolic Activation: NONE, Method: STANDARD PLATE.
The mark [3] stands for this setting: Test System: AMES SALMONELLA TYPHIMURIUM, Strain/Indicator: TA100, Metabolic Activation: RAT, LIVER, S-9, AROCLOR 1254, Method: STANDARD PLATE.
The mark [4] stands for this setting: Test System: AMES SALMONELLA TYPHIMURIUM, Strain/Indicator: TA1535, Metabolic Activation: NONE, Method: STANDARD PLATE.
Where [5] appears, read: Test System: AMES SALMONELLA TYPHIMURIUM, Strain/Indicator: TA1535, Metabolic Activation: RAT, LIVER, S-9, AROCLOR 1254, Method: STANDARD PLATE.
The mark [6] stands for this setting: Test System: AMES SALMONELLA TYPHIMURIUM, Strain/Indicator: TA1537, Metabolic Activation: NONE, Method: STANDARD PLATE.
Where [7] appears, read: Test System: AMES SALMONELLA TYPHIMURIUM, Strain/Indicator: TA1537, Metabolic Activation: RAT, LIVER, S-9, AROCLOR 1254, Method: STANDARD PLATE.
Setting [8] is: Test System: AMES SALMONELLA TYPHIMURIUM, Strain/Indicator: TA1538, Metabolic Activation: NONE, Method: STANDARD PLATE.
Where [9] appears, read: Test System: AMES SALMONELLA TYPHIMURIUM, Strain/Indicator: TA1538, Metabolic Activation: RAT, LIVER, S-9, AROCLOR 1254, Method: STANDARD PLATE.

Calls of active or inactive are those of the source. The rule behind the calls is not given here.

Regarding `O=C1c2ccccc2C(=O)c2c(O)ccc(O)c21`, the mutagenic call is “active; positive (structural changes); authors report equivocal results for ploidy chang” (End Point: IN VITRO CHROMOSOMAL ABERRATIONS, Test System: CHL CELLS, Metabolic Activation: NONE); “inactive; negative” (Test System: AMES SALMONELLA TYPHIMURIUM, Strain/Indicator: TA98, Metabolic Activation: NONE, Method: PREINCUBATION); “inactive; negative” (Test System: AMES SALMONELLA TYPHIMURIUM, Strain/Indicator: TA98, Metabolic Activation: RAT LIVER S-9, PHENOBARBITAL AND BETA-NAPHTHOFLAVONE, Method: PREINCUBATION); “inactive; negative” under setting [1]; “inactive; negative” (Test System: AMES SALMONELLA TYPHIMURIUM, Strain/Indicator: TA98, Metabolic Activation: RAT, LIVER, S-9, PCB, Method: PREINCUBATION); “inactive; negative” (Test System: AMES SALMONELLA TYPHIMURIUM, Strain/Indicator: TA100, Metabolic Activation: NONE, Method: PREINCUBATION). Further, the mutagenic call under setting [2] is “inactive; negative”; the mutagenic call (Test System: AMES SALMONELLA TYPHIMURIUM, Strain/Indicator: TA100, Metabolic Activation: RAT LIVER S-9, PHENOBARBITAL AND BETA-NAPHTHOFLAVONE, Method: PREINCUBATION) was “inactive; negative”; the mutagenic call under setting [3] was “inactive; negative”; the mutagenic call (Test System: AMES SALMONELLA TYPHIMURIUM, Strain/Indicator: TA100, Metabolic Activation: RAT, LIVER, S-9, PCB, Method: PREINCUBATION) is “inactive; negative”; the mutagenic call (Test System: AMES SALMONELLA TYPHIMURIUM, Strain/Indicator: TA102, Metabolic Activation: NONE, Method: PREINCUBATION) was “active; positive”; the mutagenic call (Test System: AMES SALMONELLA TYPHIMURIUM, Strain/Indicator: TA102, Metabolic Activation: RAT, LIVER, S-9, Method: PREINCUBATION) was “active; positive”. Besides, the mutagenic call is “inactive; negative” (Test System: AMES SALMONELLA TYPHIMURIUM, Strain/Indicator: TA1535, Metabolic Activation: NONE, Method: PREINCUBATION); “inactive; negative” under setting [4]; “inactive; negative” (Test System: AMES SALMONELLA TYPHIMURIUM, Strain/Indicator: TA1535, Metabolic Activation: RAT LIVER S-9, PHENOBARBITAL AND BETA-NAPHTHOFLAVONE, Method: PREINCUBATION); “inactive; negative” under setting [5]; “active; positive” (Test System: AMES SALMONELLA TYPHIMURIUM, Strain/Indicator: TA1537, Metabolic Activation: NONE, Method: PREINCUBATION); “active; positive” under setting [6]. The mutagenic call by setting is: (Test System: AMES SALMONELLA TYPHIMURIUM, Strain/Indicator: TA1537, Metabolic Activation: RAT LIVER S-9, PHENOBARBITAL AND BETA-NAPHTHOFLAVONE, Method: PREINCUBATION) “active; positive”; under setting [7], “active; positive”; under setting [8], “inactive; negative”; under setting [9], “inactive; negative”; (Test System: E.COLI, Strain/Indicator: WP2UVRA, Metabolic Activation: NONE, Method: PREINCUBATION) “inactive; negative”; (Test System: E.COLI, Strain/Indicator: WP2UVRA, Metabolic Activation: RAT LIVER S-9, PHENOBARBITAL AND BETA-NAPHTHOFLAVONE, Method: PREINCUBATION) “inactive; negative”.
Regarding `C1=CC2CCCCC2c2ccccc21` (centres undefined), the mutagenic call (Test System: AMES SALMONELLA TYPHIMURIUM, Strain/Indicator: TA98, Metabolic Activation: RAT, LIVER, S-9, SODIUM PHENOBARBITAL AND BETA-NAPHTHOFLAVONE, Method: STANDARD PLATE) is “active; positive” and the mutagenic call (Test System: AMES SALMONELLA TYPHIMURIUM, Strain/Indicator: TA100, Metabolic Activation: RAT, LIVER, S-9, SODIUM PHEOBARBITAL AND BETA-NAPHTHOFLAVONE, Method: STANDARD PLATE) is “active; positive”.
`Nc1ccc(O)c2c1C(=O)C=CC2=O`: the mutagenic call is “inactive; negative” (Test System: Ames Salmonella typhimurium, Strain/Indicator: TA97, Metabolic Activation: None, Method: Preincubation); “inactive; negative” (Test System: Ames Salmonella typhimurium, Strain/Indicator: TA97, Metabolic Activation: Rat, Liver, S9, Aroclor 1254, Method: Preincubation); “active; positive” (Test System: Ames Salmonella typhimurium, Strain/Indicator: TA98, Metabolic Activation: None, Method: Preincubation); “active; positive” (Test System: Ames Salmonella typhimurium, Strain/Indicator: TA98, Metabolic Activation: Rat, Liver, S9, Aroclor 1254, Method: Preincubation); “inactive; negative” (Test System: Ames Salmonella typhimurium, Strain/Indicator: TA100, Metabolic Activation: None, Method: Preincubation); “inactive; negative” (Test System: Ames Salmonella typhimurium, Strain/Indicator: TA100, Metabolic Activation: Rat, Liver, S9, Aroclor 1254, Method: Preincubation). For the same compound, the mutagenic call is “inactive; negative” (Test System: Ames Salmonella typhimurium, Strain/Indicator: TA102, Metabolic Activation: None, Method: Preincubation) and “active; positive” (Test System: Ames Salmonella typhimurium, Strain/Indicator: TA102, Metabolic Activation: Rat, Liver, S9, Aroclor 1254, Method: Preincubation).
With `Fc1ccc(CN2C3c4ccccc4-c4ccccc4C32)cc1` (centres undefined), under setting [2], the mutagenic call was “active; positive”.
For the compound `O=P(O)(O)OCC(O)CO` (centres undefined), the mutagenic call (Test System: AMES SALMONELLA TYPHIMURIUM, Strain/Indicator: TA98, Metabolic Activation: NONE, Method: STANDARD PLATE) is “inactive; negative”; the mutagenic call under setting [1] is “inactive; negative”; the mutagenic call under setting [2] was “inactive; negative”; the mutagenic call under setting [3] is “inactive; negative”; the mutagenic call under setting [4] is “inactive; negative”; the mutagenic call under setting [5] is “inactive; negative”. In addition, the mutagenic call is, setting by setting: under setting [6], “inactive; negative”; under setting [7], “inactive; negative”; under setting [8], “inactive; negative”; under setting [9], “inactive; negative”; (Test System: E. COLI, Strain/Indicator: WP2, Metabolic Activation: NONE, Method: STANDARD PLATE) “inactive; negative”; (Test System: E. COLI, Strain/Indicator: WP2, Metabolic Activation: RAT, LIVER, S-9, AROCLOR 1254, Method: STANDARD PLATE) “inactive; negative”.
As for `CCN[C@@H](C)C[C@H](C)NCC.[Cl-].[Cl-].[Pt+2]`, the mutagenic call is “active; positive” (Test System: AMES SALMONELLA TYPHIMURIUM, Strain/Indicator: TA97A, Metabolic Activation: NONE, Method: STANDARD PLATE) and “active; positive” under setting [2].

For the origin of these results see PubChem BioAssay AID1259407 (Chemical Carcinogenesis Research Information System (CCRIS), 2018).
